From PubChem BioAssay (NCI) come the findings set out here.

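A five-concentration, 48-hour dose response in 96-well plates underlies each endpoint, interpolated linearly between surrounding concentrations. The concentration for 50% growth inhibition is given as GI50. Definition used: TGI = concentration required for complete inhibition of growth.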 Some results are limits rather than exact numbers.

What all share (assay): NCI anticancer screen, dose series, 48 h
Assay [1] relates to A498 renal.
Assay [2] has as its system DU-145 prostate.
Assay [3] concerns HCC-2998 colon.
For assay [4], the system named is NCI-H460 lung.
Assay [5] concerns SN12C renal.
Assay [6] deals with MDA-MB-231 breast.
The subject of assay [7] is 786-0 renal.
Assay [8] deals with NCI-H522 lung.
Assay [9] relates to KM12 colon.
Assay [10] deals with SK-OV-3 ovarian.

In the case of `C/C=C\C(C)=C/C(C)C(=O)CC(O)CC1CC(=O)NC(=O)C1` (configuration not stated), the TGI in [1], in [2], in assay [3], in assay [4], in assay [5] and in [6] was more than 100 µM each time. In addition, the TGI was more than 100 µM in [7], 13.6 µM in [8], more than 100 µM in assay [9] and more than 100 µM in assay [10].

For the molecule `CCS(=O)(=O)Nc1ccc(Oc2ccc(F)cc2F)c(-c2cn(C)c(=O)c3[nH]ccc23)c1`, the GI50 in [1] is 0.157 µM; in assay [2] it was 2.88 µM; in assay [3] it was 0.0342 µM; in [4], 0.302 µM; in assay [5], 0.981 µM; in assay [6], 0.0494 µM. Further, the GI50 in assay [7] is 0.192 µM; in assay [8], less than 0.01 µM; in assay [9], 0.109 µM; in [10] it was less than 0.0109 µM. Moreover, the TGI in assay [1] is 4.01 µM; in assay [2], 31.4 µM; in assay [3] it was 1.38 µM; in assay [4], 19.3 µM; in assay [5], 31.2 µM; in [6], 17.5 µM. The TGI in assay [7] was 18.1 µM; in [8] it was 5.92 µM; in [9] it was 18.2 µM; in assay [10] it was 6.2 µM.

Take `CCCCCCCCCCCCOC1C(C(COC2OC(C(O)CO)C3OC(C)(C)OC23)OC(=O)Nc2ccc([N+](=O)[O-])cc2)OC2OC(C)(C)OC21` (configuration not stated): the GI50 is 2.63 µM in assay [1]; 2.52 µM in [2]; 11.6 µM in assay [3]; 3.74 µM in assay [4]; 1.78 µM in assay [5]; 2.6 µM in [6]. Further, the GI50 in assay [7] was 1.7 µM; in [8], 1.92 µM; in assay [9] it was 2 µM; in assay [10], 15.9 µM. For the same molecule, the TGI was found to be 6.09 µM in assay [1]; 7.17 µM in assay [2]; 25.1 µM in assay [3]; 13.5 µM in assay [4]; 3.52 µM in assay [5]; 7.2 µM in assay [6]. Further, the TGI in assay [7] was found to be 3.15 µM; in assay [8], 3.9 µM; in assay [9], 4.1 µM; in [10], 30.8 µM.

Regarding `Cn1c([N+](=O)[O-])cnc1/C=C1\Oc2ccc(Cl)cc2C1=O`, the GI50 in assay [1] was 1.89 µM; in [2], 0.402 µM; in [3] it was 2.02 µM; in [4] it was 0.352 µM; in assay [5], 0.738 µM; in [6], 0.783 µM. Moreover, the GI50 in assay [7] is 0.942 µM; in [8], 0.528 µM; in [9], 0.36 µM; in [10], 2.05 µM. Also, the TGI stood at 5.07 µM in [1]; 1.32 µM in [2]; 4.68 µM in assay [3]; 2.95 µM in assay [4]; 3.46 µM in assay [5]; 4.64 µM in [6]. Besides, the TGI in assay [7] was 3.39 µM; in [8], 2.19 µM; in assay [9], 1.47 µM; in [10], 7.24 µM.

With `COc1ccc(/C(C)=C(\c2ccc(Cl)cc2)c2ccc(OCCN3CCCCC3)cc2)cc1F`, the GI50 in assay [2] was 4.64 µM; in [3], 3.21 µM; in assay [4], 2.59 µM; in [5], 2.75 µM; in assay [6], 3.04 µM; in assay [7], 2.69 µM. In addition, the GI50 was 3.54 µM in assay [8], 1.97 µM in [9] and 5.92 µM in assay [10]. Also, the TGI in assay [2] was found to be 15 µM; in assay [3] it was 7.14 µM; in [4], 5.38 µM; in assay [5], 7.24 µM; in [6], 5.71 µM; in [7] it was 5.3 µM. Also, the results for the TGI in [8], in assay [9] and in assay [10] were 7.94 µM, 6.23 µM and more than 16.7 µM, respectively.

For the molecule `CC(=O)OC1C(OC/C2=C/C3[C@@H](C(C)C)CC=C(C)[C@@H]3CC(OC(=O)/C=C/c3cn(C)cn3)[C@]3(C)C=C[C@@]2(O)O3)OCC(O)C1O` (some centres not stated), the GI50 in [1] is 0.0122 µM; in assay [2] it was 0.0155 µM; in assay [3] it was 0.0134 µM; in assay [4] it was 0.00928 µM; in [5], 0.186 µM; in assay [6], 0.421 µM. For the same molecule, the GI50 in assay [7] was 0.0441 µM; in assay [8] it was 0.015 µM; in [9], 0.0123 µM; in [10], 0.0132 µM. For the same molecule, the TGI was 0.106 µM in [1]; 0.0475 µM in assay [2]; 0.0658 µM in assay [3]; more than 50 µM in [5]; more than 50 µM in assay [6]; more than 50 µM in assay [7].

For the molecule `Cc1ccc(S(=O)(=O)NC(CCCCN)C(=O)CCl)cc1` (configuration not stated), the GI50 in assay [2] was 81.2 µM; in assay [3], 37.4 µM; in [4], more than 100 µM; in [5] it was 35.6 µM; in assay [6] it was more than 100 µM; in assay [7], 73.2 µM. The GI50 in assay [8] is 31 µM; in assay [9], 55.9 µM; in assay [10], more than 100 µM. In addition, the TGI in [2] is more than 100 µM; in assay [3], more than 100 µM; in assay [4], more than 100 µM; in assay [5], 77.2 µM; in [6], more than 100 µM; in assay [7], more than 100 µM. Also, the TGI in [8], in assay [9] and in [10] was more than 100 µM each time.

On to `N#Cc1ccccc1C#C/C=C\C#Cc1cnccn1`, for which the GI50 in assay [1] is 16.2 µM; in [2], 25 µM; in [3] it was 4.79 µM; in [4] it was 39.4 µM; in assay [5], 13.8 µM; in assay [6], 11.1 µM. Further, the GI50 in assay [7] was 21 µM; in assay [8], 18 µM; in assay [9], 3.49 µM; in assay [10], 52.7 µM. Further, the TGI in [1] was 52.3 µM; in assay [2], more than 100 µM; in assay [3] it was 28.2 µM; in assay [4], more than 100 µM; in assay [5], 41.5 µM; in [6] it was 44.1 µM. The TGI in assay [7] is more than 79.3 µM; in [8], more than 65.9 µM; in assay [9] it was more than 31.5 µM; in assay [10], more than 100 µM.
